Measured values from patent publication US9687845B2, “Self-loading microfluidic device and methods of use” (Wisconsin Alumni Research Foundation, priority 2011, dated 2017).
Where a name gives a salt, the structure may show the parent alone.

Assays:
[1] = test system: E. coli (UT189); test: Growth in sugars, microfluidic device (phenol red colour change); on Growth, Device: key: + indicates growth; − indicates no growth; type: cell-based; conditions: for Growth, Device: E. coli (UT189), sugar 1% (w/v), LB with 0.05% phenol red pH 8.2; for growth in device chamber: E. coli (UT189)-1
Method: (§1) Self-loading microfluidic devices were prepared as described above. Reaction wells were filled with different sugar solutions including (1) cellbiose, (2) glycerol, (3) lactose, (4) mannitol, (5) mannose, (6) raffinose, (7) sucrose, (8) trehalose, (9) xylose, and (10) control (no sugar) (FIG. 28). The final concentration of the sugar in each chamber was 1% (w/v). After loading the sugar solutions, the liquid was evaporated as described above. The devices were then assembled and degassed by vacuum.
(§2) Cultures of A. baumannii-1, A. baumannii-2, K. pneumoniea-1, K. pneumoniea-2, S. aureus-1, S. aureus-2, E. coli (UT189), E. faecalis-1, E. faecalis-2, V. cholerae-1, and (11) V. cholerae-2 were grown for 15 hours in LB (pH 7.0). The cultures were then diluted at a ratio of 1:50 in LB containing 0.05% (w/v) phenol red (pH8.2) and added to individual devices using degas-driven flow. Growth of bacteria results in a pH change of the LB that causes a color change from red (illustrated in FIGS. 29 and 30 as filled chambers) to yellow (illustrated in FIGS. 29 and 30 as hatched chambers).

[2] = test system: K. pneumoniae; test: as above; type: cell-based; conditions: for Growth, Device: K. pneumoniae, sugar 1% (w/v), LB with 0.05% phenol red pH 8.2; for growth in device chamber: K. pneumoniea-1 and K. pneumoniea-2, by 4 hours of incubation
Method: as §1, §2

[3] = test system: A. baumannii; test: as above; type: cell-based; conditions: for Growth, Device: A. baumannii, sugar 1% (w/v), LB with 0.05% phenol red pH 8.2
Method: as §1, §2

[4] = test system: E. faecalis; test: as above; type: cell-based; conditions: E. faecalis-1 and E. faecalis-2; by 18 hours of incubation
Method: as §1, §2

[5] = test system: S. aureus; conditions: cited from earlier work; further: key: + indicates growth; − indicates no growth
[6] = test system: E. faecalis; conditions: cited from earlier work; on Growth, Predicted: key: + indicates growth; − indicates no growth
[7] = test system: E. coli (UT189); test: Growth in sugars, culture tubes; type: cell-based
Text: (§3) Results observed in microfluidic devices are illustrated in FIGS. 29A-F and 30A-E. The predicted growth as compared to devices and culture tubes are summarized in Table 2.

[8] = test system: K. pneumoniae; test: Growth in sugars, culture tubes; type: cell-based
Text: as §3

[9] = test system: A. baumannii; test: Growth in sugars, culture tubes; type: cell-based; conditions: for Growth, Tube: A. baumannii, culture tubes
Text: as §3

[10] = test system: E. faecalis; test: Growth in sugars, culture tubes; type: cell-based
Text: as §3

[11] = test system: E. coli (UT189); conditions: cited from earlier work; further: key: + indicates growth; − indicates no growth
[12] = test system: P. mirabilis (HI4320); test: Off-chip MIC, broth dilution method according to CLSI protocols; type: cell-based; parameters: unit not given beside the values; conditions: CAMHB, 20 h at 35° C.
Method: (§4) Off-chip MIC assays using the broth dilution method according to CLSI protocols were performed as control experiments and to validate experimental data obtained with the microfluidic device.

[13] = test system: kanamycin-resistant strain of E. coli MG1655; test: Susceptibility to multiple antibiotics on a single microfluidic device using breakpoint values; type: cell-based; conditions: 18 h; vancomycin 2, 4, 8 μg/mL, tetracycline 0.5, 1, 2 μg/mL, kanamycin 1, 2, 4 μg/mL
Text: In this Example, a single microfluidic device was used to simultaneously test the susceptibility of the kanamycin-resistant strain of E. coli MG1655 described above to multiple antibiotics using breakpoint values.
In clinical microbiology, a strain is classified as susceptible, intermediate, or resistant based on the relationship of the MIC of an antibiotic to specified ‘breakpoint’ values. Breakpoint values are set by organizations, such as the CLSI, and take into consideration MIC values of wild type strains, pharmacokinetic/pharmacodynamic data, and clinical outcomes. Breakpoint values are available for specific clinically relevant pairings of bacterial species and antibiotics and enable clinical decisions without knowing the exact MIC value.
Specifically, vancomycin, tetracycline, and kanamycin were added to the reaction wells of a single device. The most common breakpoints for vancomycin (susceptible <2 μg/mL, resistant >2 μg/mL), tetracycline (susceptible <1 μg/mL, intermediate=2 μg/mL, resistant >2 μg/mL), and gentamicin (susceptible <2 μg/mL, intermediate=4 μg/mL, resistant >4 μg/mL) were used. As there are no published breakpoints available for kanamycin, the breakpoint values for the structurally related aminoglycoside, gentamicin, against aerobic bacteria was used. A microfluidic device with ten chambers was prepared as described in Example 1 above. The ten chambers were divided into three chambers for each antibiotic vancomycin (2, 4, 8 μg/mL), tetracycline (0.5, 1, 2 μg/mL), and kanamycin (1, 2, 4 μg/mL) and one chamber for a control containing no antibiotic.

[14] = test system: K. pneumoniae; test: Off-chip MIC, broth dilution method according to CLSI protocols; type: cell-based; conditions: CAMHB, 20 h at 35° C.
Method: as §4

[15] = test system: K. pneumoniae; test: MIC measurement using the self-loading microfluidic device; type: cell-based; conditions: 18 h at 35° C., CAMBH pH 8.2 with 1% glucose and 0.05% phenol red, dilution series 0.5-1024 μg/mL
Method: (§5) Minor adjustments were made to procedures mimicking the CLSI guidelines to perform MIC measurements using microfluidic devices prepared as described above. Antibiotic stock solutions (10 mg/mL in sterile deionized water) of vancomycin hydrochloride, tetracycline hydrochloride, and kanamycin monosulfate were used to prepare a 1:10 dilution series. Appropriate amounts of these dilutions were added to sterile deionized water to create a two-fold dilution series that varied from 0.5-1024 μg/mL. Antibiotic solution (2.94 μL) was added to each chamber with the lowest antibiotic concentration located closest to the inlet port and the highest antibiotic concentration located in the chamber closest to the vacuum well. After antibiotic loading, the device was placed in a laminar flow hood to evaporate the liquid. After the liquid was evaporated, the device was assembled by placing the layer of PDMS forming the channel section over the chamber layer containing the dried antibiotic such that the channels connected the chambers. The assembled device was then placed under vacuum.
(§6) The standardized culture was then diluted 1:200 in CAMBH media, pH 8.2 supplemented with 1% glucose and 0.05% phenol red to provide a colorimetric change upon growth. The device was removed from the vacuum and 20 μL of cell suspension was pipetted onto the inlet port. […] Bacterial growth changed the pH of the liquid nutrient media containing the indicator phenol red, and produced a visible color change that was used to identify the cell growth in chambers.

[16] = test system: P. mirabilis (HI4320); test: as above; type: cell-based; conditions: 18 h at 35° C., CAMBH pH 8.2 with 1% glucose and 0.05% phenol red, dilution series 0.5-1024 μg/mL
Method: as §5, §6

[17] = test system: S. aureus; test: Growth in sugars, microfluidic device (phenol red colour change); on Growth, Device: key: + indicates growth; − indicates no growth; type: cell-based; conditions: for Growth, Device: S. aureus, sugar 1% (w/v), LB with 0.05% phenol red pH 8.2
Method: as §1, §2

[18] = test system: S. aureus; test: Growth in sugars, culture tubes; type: cell-based; conditions: for Growth, Tube: culture tubes; on Growth, Tube: key: + indicates growth; − indicates no growth
Text: as §3

[19] = S. aureus-1, by 8 hours of incubation
Wherever Growth, Device is given: key: + indicates growth; − indicates no growth.

| SMILES | Growth, Device [1] | Growth, Device [2] | Growth, Device [3] | growth in device chamber [4] | Growth, Predicted [5] | Growth, Predicted [6] | Growth, Tube [7] | Growth, Tube [8] | Growth, Tube [9] | Growth, Tube [10] | Growth, Predicted [11] | growth in device chamber [1] | growth in device chamber [17, 19] | Growth, Device [17] | Growth, Tube [18] | growth in device chamber [2] | further results |
| --- | --- | --- | --- | --- | --- | --- | --- | --- | --- | --- | --- | --- | --- | --- | --- | --- | --- |
| OC[C@H]1O[C@@H](O[C@H]2[C@H](O)[C@@H](O)[C@@H](O)O[C@@H]2CO)[C@H](O)[C@@H](O)[C@@H]1O [Cellbiose, cellbiose] | − | − | − | grew | − | + | − | + | − | + | − |  |  |  |  |  |  |
| CN[C@H](CC(C)C)C(=O)N[C@H]1C(=O)N[C@@H](CC(N)=O)C(=O)N[C@H]2C(=O)N[C@H]3C(=O)N[C@H](C(=O)N[C@H](C(=O)O)c4cc(O)cc(O)c4-c4cc3ccc4O)[C@H](O)c3ccc(c(Cl)c3)Oc3cc2cc(c3O[C@@H]2O[C@H](CO)[C@@H](O)[C@H](O)[C@H]2O[C@H]2C[C@](C)(N)[C@H](O)[C@H](C)O2)Oc2ccc(cc2Cl)[C@H]1O [vancomycin, vancomycin hydrochloride] |  |  |  |  |  |  |  |  |  |  |  |  |  |  |  |  | MIC, Broth [12]: >1024; effect on growth of the strain [13]: did not have any effect; MIC, Broth [14]: >1024; MIC, Device [15]: >1024; MIC, Device [16]: >1024 |
| O=C[C@H](O)[C@@H](O)[C@H](O)CO [Xylose, xylose] | − | − | + |  | − | − | + | + | − | − | + | grew |  |  |  |  | growth in device chamber ([3]; A. baumannii-1 and A. baumannii-2, by 8 hours of incubation): grew; growth in culture tubes ([9]; A. baumannii-1 and A. baumannii-2): did not grow |
| OC[C@H]1O[C@@H](O[C@H]2[C@H](O)[C@@H](O)C(O)O[C@@H]2CO)[C@H](O)[C@@H](O)[C@H]1O (stereo partly drawn) [Lactose, lactose] | + | − |  | grew | + | + | + | − |  | + | + | grew | growth was not observed | − | + |  | growth in device chamber ([17]; S. aureus-2, by 18 hours of incubation): growth was not observed |
| OC[C@H]1O[C@H](OC[C@H]2O[C@H](O[C@]3(CO)O[C@H](CO)[C@@H](O)[C@@H]3O)[C@H](O)[C@@H](O)[C@@H]2O)[C@H](O)[C@@H](O)[C@H]1O [Raffinose, raffinose] | − | + | − |  | − | − | − | + | − | − | − |  |  |  |  | grew |  |
| OC[C@@H](O)[C@@H](O)[C@H](O)[C@H](O)CO [Mannitol, mannitol] | + | + |  | grew | + | + | + | + |  | + | + | grew | grew | + | + | grew |  |
| OCC(O)CO [Glycerol, glycerol] | − | + | − | grew | + | + | − | + | − | + | + |  | grew | + | − | grew | growth in culture tubes [18]: no growth was observed |
